According to US7902253B2, “Isoflavone derivatives of tectorigenin, the preparation thereof and the antiviral medicine containing the same as an effective constituent” (priority 2003, dated 2011):
Converted amounts (≈) assume the structure as drawn. “And” between values parts separate entries of the source, which are not always exact repeats. Equal values may be shown once. Read-outs that look alike come from different tables or passages of the source.

How the values were obtained:
[1] = system: VZV; assay type: cell-based
[2] = system: influenza virus type A3 (Flu•V A3); assay type: cell-based
[3] = system: influenza virus type A1 (Flu•V A1); assay type: cell-based
[4] = system: respiratory syncytial virus (RSV); assay type: cell-based
[5] = system: Vero-E6 cell; assay: toxicity to Vero-E6 cell (CPE, REED-MUENCH); conditions: five days, CPE index
[6] = solubility test in water (Chinese Pharmacopeia method); conditions: 25° C.±2° C., shaken every five minutes for 30 minutes
[7] = system: HSV-1; assay type: cell-based
[8] = solubility in water stated in description and preparation examples; assay type: physicochemical
[9] = system: adenovirus type 3 (ADV3); assay type: cell-based
[10] = system: coronavirus BJ01 strain; assay: organism not typed; assay type: cell-based, coronavirus (SARS); conditions: for IC50: Vero C1008, 120 h
[11] = system: Coxsackie virus group B (CoxBV); assay type: cell-based
[12] = system: adenovirus type 7 (ADV7); assay type: cell-based
[13] = system: Z-HL16C cells; assay: cell toxicity test; conditions: all concentrations tested
[14] = system: Hep-2 cells; assay: cell toxicity test; conditions: Hep-2, all concentrations tested
[15] = clarity of injection after adding glucose; assay type: physicochemical
[16] = product of the preparation example (salt as made), read-out: solubility in water

COc1c(O)c(CN(C)C)c2occ(-c3ccc(O)cc3)c(=O)c2c1O [Compound (X)]
cell pathologic change degree [1]: 1+ and 2+ | cell pathologic change degree [2]: 1+ and 2+ and 3+ | cell pathologic change degree [3]: 2+ | cell pathologic change degree [4]: 2+ and 3+ | TD50 (median toxic concentration) [5]: 3.95 mg/mL | Solute: water [6]: 9 mg/mL | cell pathologic change degree [7]: 1+ and 2+ and 3+ | solubility [8, 16]: > 2000 µg/mL | cell pathologic change degree [9]: 1+ and 2+ and 3+ | IC50 [10]: 119 µg/mL (≈ 332 µM) | cell pathologic change degree [11]: 1+ and 3+ | cell pathologic change degree [12]: 2+ and 3+

COc1c(O)cc2occ(-c3ccc(O)cc3)c(=O)c2c1O [Compound (I), 5,7,4′-trihydroxy-6-methoxyl isoflavone, reference compound]
Solute: water [6]: 0.1 mg/mL

C=C1CC[C@@H]2[C@](C)(COC(=O)CCC(=O)[O-])[C@H](OC(=O)CCC(=O)[O-])CC[C@@]2(C)[C@@H]1/C=C/C1=CCOC1=O.[K+].[Na+] [Chuanhuning, Potassium Sodium Dehydroandroandrographolide Succinate, reference compound]
cell pathologic change degree [1]: 1+ and 2+ and 3+ | cell pathologic change degree [2]: 2+ and 3+ | effect on cytopathogenesis (in words) [2]: inhibiting effect | toxic reaction to cells (in words) [13]: no any toxic reaction | toxic reaction to cells (in words) [14]: no any toxic reaction | cell pathologic change degree [3]: 2+ and 3+ | effect on cytopathogenesis (in words) [3]: inhibiting effect | cell pathologic change degree [4]: 2+ and 3+ | effect on cytopathogenesis (in words) [4]: inhibiting effect | cell pathologic change degree [7]: 1+ and 2+ and 3+ | cell pathologic change degree [9]: 2+ and 3+ | effect on cytopathogenesis (in words) [9]: inhibiting effect | cell pathologic change degree [11]: 2+ and 3+ | effect on cytopathogenesis (in words) [11]: inhibiting effect | cell pathologic change degree [12]: 2+ and 3+ | effect on cytopathogenesis (in words) [12]: inhibiting effect

NC(=O)c1ncn([C@@H]2O[C@H](CO)[C@@H](O)[C@H]2O)n1 [Ribavirin, reference compound]
cell pathologic change degree [2]: 1+ and 3+ | cell pathologic change degree [3]: 1+ and 3+ | cell pathologic change degree [4]: 2+ and 3+ | cell pathologic change degree [7]: 1+ and 2+ and 3+ | cell pathologic change degree [9]: 1+ and 2+ and 3+ | Pathologic change pore/cell pore [10]: 2/4 and 3/4 and 4/4 and 0/4 and 1/4 | cell pathologic change degree [11]: 2+ and 3+ | cell pathologic change degree [12]: 2+ and 3+

COc1c(O)cc2occ(-c3ccc(O)c(S(=O)(=O)[O-])c3)c(=O)c2c1O.[Na+] [Compound (IV), tectorigenin sodium sulfonate]
TD50 (median toxic concentration) [5]: 4.34 mg/mL | Solute: water [6]: 67 mg/mL | solubility ([8]; 60 °C, after heating to 60˜100° C., read-out: water-solubility): 50000 to 60000 µg/mL | solubility ([8]; room temperature, read-out: water-solubility): 20000 µg/mL | clarity of the injection ([15]; 2-15% glucose added, room temperature and low temperature (0° C.-5° C.)): kept clarified | clarity of the injection ([15]; 4% glucose added, room and low (0° C.˜5° C.) temperature): kept clear | IC50 [10]: 97.6 µg/mL

COc1c(O)cc2occ(-c3ccc(OCCN(C)C)cc3)c(=O)c2c1O [Compound (VIII)]
cell pathologic change degree [1]: 2+ | cell pathologic change degree [2]: 1+ and 2+ and 3+ | cell pathologic change degree [3]: 2+ | cell pathologic change degree [4]: 2+ and 3+ | TD50 (median toxic concentration) [5]: 3.45 mg/mL | Solute: water [6]: 10 mg/mL | cell pathologic change degree [7]: 1+ and 2+ | solubility [8, 16]: > 2000 µg/mL | cell pathologic change degree [9]: 1+ and 2+ and 3+ | IC50 [10]: 112 µg/mL (≈ 302 µM) | cell pathologic change degree [11]: 1+ and 2+ and 3+ | cell pathologic change degree [12]: 2+ and 3+

COc1c(O)cc2occ(-c3ccc(OCC(=O)[O-])cc3)c(=O)c2c1O.[Na+] [Compound (VII)]
cell pathologic change degree [1]: 1+ and 2+ | cell pathologic change degree [2]: 1+ and 2+ and 3+ | cell pathologic change degree [3]: 2+ | cell pathologic change degree [4]: 2+ and 3+ | TD50 (median toxic concentration) [5]: 4.20 mg/mL | Solute: water [6]: 15 mg/mL | cell pathologic change degree [7]: 1+ | solubility [8, 16]: > 2000 µg/mL | cell pathologic change degree [9]: 1+ and 2+ | IC50 [10]: 102 µg/mL | cell pathologic change degree [11]: 1+ and 2+ and 3+ | cell pathologic change degree [12]: 2+ and 3+

COc1c(O)cc2occ(-c3ccc(O)c(N)c3)c(=O)c2c1O [Compound (VI)]
cell pathologic change degree [1]: 2+ and 3+ | cell pathologic change degree [2]: 1+ and 2+ and 3+ | cell pathologic change degree [3]: 2+ | cell pathologic change degree [4]: 2+ and 3+ | TD50 (median toxic concentration) [5]: 3.85 mg/mL | Solute: water [6]: 8 mg/mL | cell pathologic change degree [7]: 1+ and 2+ and 3+ | solubility [8, 16]: > 1000 µg/mL | cell pathologic change degree [9]: 1+ and 2+ and 3+ | IC50 [10]: 120 µg/mL (≈ 381 µM) | cell pathologic change degree [11]: 2+ | cell pathologic change degree [12]: 2+ and 3+

COc1c(O)c(CN2CCCCC2)c2occ(-c3ccc(O)cc3)c(=O)c2c1O [Compound (IX)]
cell pathologic change degree [1]: 1+ and 2+ and 3+ | cell pathologic change degree [2]: 1+ and 2+ and 3+ | cell pathologic change degree [3]: 2+ | cell pathologic change degree [4]: 2+ | TD50 (median toxic concentration) [5]: 2.89 mg/mL | Solute: water [6]: 8 mg/mL | cell pathologic change degree [7]: 2+ | solubility [8, 16]: < 1000 µg/mL | cell pathologic change degree [9]: 1+ and 3+ | IC50 [10]: 125 µg/mL (≈ 315 µM) | cell pathologic change degree [11]: 1+ and 2+ and 3+ | cell pathologic change degree [12]: 2+ and 3+
